pEC50, pIC50: −log10 of the molar value. Where a name gives a salt, the structure may show the parent alone.
molecular target: T1, epithelial sodium channel (ENaC) (Homo sapiens, UniProt P37088+P51168+P51170); test: Short circuit current (ISC) measurements in human bronchial epithelial cells, inhibition of amiloride-sensitive ISC; format: cell-based; details: inhibition of the amiloride-sensitive ISC, HBECs at air-liquid interface, compound added to apical chamber
T1 construct: host or cells: primary human bronchial epithelial cells (HBECs), air-liquid interface culture
T1 sequence (P37088 1-669): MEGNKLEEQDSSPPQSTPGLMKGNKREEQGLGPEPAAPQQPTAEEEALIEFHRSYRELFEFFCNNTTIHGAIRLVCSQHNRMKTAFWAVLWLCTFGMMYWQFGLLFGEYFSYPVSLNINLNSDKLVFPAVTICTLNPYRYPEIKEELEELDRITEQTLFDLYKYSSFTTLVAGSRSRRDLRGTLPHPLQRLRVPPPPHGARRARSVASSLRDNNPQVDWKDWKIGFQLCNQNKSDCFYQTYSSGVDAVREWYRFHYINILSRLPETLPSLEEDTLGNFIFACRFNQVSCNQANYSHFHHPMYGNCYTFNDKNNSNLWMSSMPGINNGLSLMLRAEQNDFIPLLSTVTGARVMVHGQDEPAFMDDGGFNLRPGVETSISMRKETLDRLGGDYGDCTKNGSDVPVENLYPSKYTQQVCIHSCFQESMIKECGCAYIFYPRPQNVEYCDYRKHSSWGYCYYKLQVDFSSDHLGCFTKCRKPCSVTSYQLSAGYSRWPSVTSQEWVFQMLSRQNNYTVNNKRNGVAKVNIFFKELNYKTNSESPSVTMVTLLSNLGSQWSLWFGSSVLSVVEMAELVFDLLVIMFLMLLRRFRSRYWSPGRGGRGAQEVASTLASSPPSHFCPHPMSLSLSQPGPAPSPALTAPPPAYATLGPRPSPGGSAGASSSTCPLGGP
T1 sequence (P51168 1-640): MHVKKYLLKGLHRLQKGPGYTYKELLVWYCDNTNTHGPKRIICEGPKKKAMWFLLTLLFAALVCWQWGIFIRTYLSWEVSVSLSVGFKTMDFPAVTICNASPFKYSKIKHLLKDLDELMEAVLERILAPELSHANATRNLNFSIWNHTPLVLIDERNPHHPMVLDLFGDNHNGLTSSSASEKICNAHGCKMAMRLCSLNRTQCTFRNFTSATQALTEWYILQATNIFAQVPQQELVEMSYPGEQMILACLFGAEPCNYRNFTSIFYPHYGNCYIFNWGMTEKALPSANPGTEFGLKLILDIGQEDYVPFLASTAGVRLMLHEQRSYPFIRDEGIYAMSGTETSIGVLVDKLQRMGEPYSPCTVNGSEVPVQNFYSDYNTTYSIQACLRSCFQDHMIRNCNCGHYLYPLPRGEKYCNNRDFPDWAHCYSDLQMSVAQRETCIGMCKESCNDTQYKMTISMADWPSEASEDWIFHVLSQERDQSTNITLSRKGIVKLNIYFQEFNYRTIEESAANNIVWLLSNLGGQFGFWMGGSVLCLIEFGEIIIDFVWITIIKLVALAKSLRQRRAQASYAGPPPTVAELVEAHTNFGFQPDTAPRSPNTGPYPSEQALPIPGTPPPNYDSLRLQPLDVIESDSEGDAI
T1 sequence (P51170 1-649): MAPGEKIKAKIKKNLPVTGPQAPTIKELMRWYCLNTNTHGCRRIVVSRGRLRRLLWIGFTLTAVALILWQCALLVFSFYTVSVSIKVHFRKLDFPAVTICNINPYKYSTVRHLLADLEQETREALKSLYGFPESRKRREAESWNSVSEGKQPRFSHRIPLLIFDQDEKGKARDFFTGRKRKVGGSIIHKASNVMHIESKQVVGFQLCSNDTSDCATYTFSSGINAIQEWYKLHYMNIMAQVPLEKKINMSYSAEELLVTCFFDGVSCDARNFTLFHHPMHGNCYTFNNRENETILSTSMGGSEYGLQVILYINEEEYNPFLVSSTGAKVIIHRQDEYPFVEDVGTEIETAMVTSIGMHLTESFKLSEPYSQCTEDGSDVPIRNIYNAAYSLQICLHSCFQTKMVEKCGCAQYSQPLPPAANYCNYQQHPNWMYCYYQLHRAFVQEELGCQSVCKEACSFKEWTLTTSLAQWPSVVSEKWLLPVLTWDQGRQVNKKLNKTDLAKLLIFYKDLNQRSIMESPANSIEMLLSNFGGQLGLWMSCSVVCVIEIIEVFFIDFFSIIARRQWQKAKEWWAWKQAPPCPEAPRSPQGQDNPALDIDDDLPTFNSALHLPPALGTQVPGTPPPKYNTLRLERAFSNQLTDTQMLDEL
Method: Compounds of Formula E and their pharmaceutically acceptable salts, hereinafter referred to alternatively as “illustrative ENaC inhibitors of the invention”, are useful as pharmaceuticals. In particular, the compounds have good ENaC blocker activity and may be tested in the following assays.
Human Bronchial Epithelial cells (HBECs) (Cambrex) were cultured under air-liquid interface conditions to provide a well differentiated mucociliary phenotype.
HBECs were cultured using a modification of the method described by Gray and colleagues (Gray et al., 1996). […]
Snapwell inserts were mounted in Vertical Diffusion Chambers (Costar) and were bathed with continuously gassed Ringer solution (5% CO2 in O2; pH 7.4) maintained at 37° C. containing (in mM): 120 NaCl, 25 NaHCO3, 3.3 KH2PO4, 0.8 K2HPO4, 1.2 CaCl2, 1.2 MgCl2, and 10 glucose. […] RT was measured by applying a 1- or 2-mV pulse at 30-s intervals and calculating RT by Ohm's law. Data were recorded using a PowerLab workstation (ADInstruments).
Test compounds were prepared as a 10 mM stock solution in DMSO (95%). […] At the completion of the concentration-response experiment, amiloride (10 μM) was added into the apical chamber to enable the total amiloride-sensitive current to be measured. […]
Results are expressed as the mean % inhibition of the amiloride-sensitive ISC. […]

pIC50	Structure (SMILES)
8.30	CCCC1N/C(=N/C(=O)c2nc(Cl)c(N)nc2N)NC1CCCc1ccc(OCC(O)CO)cc1 (stereo in doubt) [Example 29, (E)-3,5-diamino-6-chloro-N-(4-(3-(4-((S)-2,3-dihydroxypropoxy)phenyl)propyl)-5-propylimidazolidin-2-ylidene)pyrazine-2-carboxamide hydrochloride]
7.92	Cc1oc(-c2ccccc2)nc1COc1ccc(S(=O)(=O)N2CCC3(CC2)CN/C(=N\C(=O)c2nc(Cl)c(N)nc2N)N3)cc1 [Example 238, 3,5-Diamino-6-chloro-pyrazine-2-carboxylic acid [8-[4-(5-methyl-2-phenyl-oxazol-4-ylmethoxy)-benzenesulfonyl]-1,3,8-triaza-spiro[4.5]dec-(2E)-ylidene]-amide]

molecular target: T2, ΔF508-CFTR (Homo sapiens, UniProt P13569, DEL508-508); test: Membrane potential optical (FRET/VIPR) assay, identification of potentiator compounds, NIH3T3 cells expressing ΔF508-CFTR; format: cell-based; details: Table II.A-4; EC50 of certain embodiments
T2 construct: expressed in transfected cells
Description: I) Membrane Potential Optical Methods for Assaying ΔF508-CFTR Modulation Properties of Compounds
The optical membrane potential assay utilized voltage-sensitive FRET sensors described by Gonzalez and Tsien (See, Gonzalez, J. E. and R. Y. Tsien (1995) “Voltage sensing by fluorescence resonance energy transfer in single cells” Biophys J 69(4): 1272-80, and Gonzalez, J. E. and R. Y. Tsien (1997) “Improved indicators of cell membrane potential that use fluorescence resonance energy transfer” Chem Biol 4(4): 269-77) in combination with instrumentation for measuring fluorescence changes such as the Voltage/Ion Probe Reader (VIPR) (See, Gonzalez, J. E., K. Oades, et al. (1999) “Cell-based assays and instrumentation for screening ion-channel targets” Drug Discov Today 4(9): 431-439).
These voltage sensitive assays are based on the change in fluorescence resonant energy transfer (FRET) between the membrane-soluble, voltage-sensitive dye, DiSBAC2(3), and a fluorescent phospholipid, CC2-DMPE, which is attached to the outer leaflet of the plasma membrane and acts as a FRET donor. Changes in membrane potential (Vm) cause the negatively charged DiSBAC2(3) to redistribute across the plasma membrane and the amount of energy transfer from CC2-DMPE changes accordingly. The changes in fluorescence emission were monitored using VIPR™ II, which is an integrated liquid handler and fluorescent detector designed to conduct cell-based screens in 96- or 384-well microtiter plates.
To identify potentiators of ΔF508-CFTR, a double-addition HTS assay format was developed. During the first addition, a Cl^−-free medium with or without test compound was added to each well. After 22 sec, a second addition of Cl^−-free medium containing 2-10 μM forskolin was added to activate ΔF508-CFTR. The extracellular Cl^− concentration following both additions was 28 mM, which promoted Cl^− efflux in response to ΔF508-CFTR activation and the resulting membrane depolarization was optically monitored using the FRET-based voltage-sensor dyes. Solutions
Bath Solution #1: (in mM) NaCl 160, KCl 4.5, CaCl2 2, MgCl2 1, HEPES 10, pH 7.4 with NaOH. Chloride-free bath solution: Chloride salts in Bath Solution #1 are substituted with gluconate salts. CC2-DMPE: Prepared as a 10 mM stock solution in DMSO and stored at −20° C. DiSBAC2(3): Prepared as a 10 mM stock in DMSO and stored at −20° C.
NIH3T3 mouse fibroblasts stably expressing ΔF508-CFTR are used for optical measurements of membrane potential. The cells are maintained at 37° C. in 5% CO2 and 90% humidity in Dulbecco's modified Eagle's medium supplemented with 2 mM glutamine, 10% fetal bovine serum, 1× NEAA, β-ME, 1× pen/strep, and 25 mM HEPES in 175 cm^2 culture flasks. […]

T2 sequence (P13569 with tags, fused parts or gaps DEL508-508): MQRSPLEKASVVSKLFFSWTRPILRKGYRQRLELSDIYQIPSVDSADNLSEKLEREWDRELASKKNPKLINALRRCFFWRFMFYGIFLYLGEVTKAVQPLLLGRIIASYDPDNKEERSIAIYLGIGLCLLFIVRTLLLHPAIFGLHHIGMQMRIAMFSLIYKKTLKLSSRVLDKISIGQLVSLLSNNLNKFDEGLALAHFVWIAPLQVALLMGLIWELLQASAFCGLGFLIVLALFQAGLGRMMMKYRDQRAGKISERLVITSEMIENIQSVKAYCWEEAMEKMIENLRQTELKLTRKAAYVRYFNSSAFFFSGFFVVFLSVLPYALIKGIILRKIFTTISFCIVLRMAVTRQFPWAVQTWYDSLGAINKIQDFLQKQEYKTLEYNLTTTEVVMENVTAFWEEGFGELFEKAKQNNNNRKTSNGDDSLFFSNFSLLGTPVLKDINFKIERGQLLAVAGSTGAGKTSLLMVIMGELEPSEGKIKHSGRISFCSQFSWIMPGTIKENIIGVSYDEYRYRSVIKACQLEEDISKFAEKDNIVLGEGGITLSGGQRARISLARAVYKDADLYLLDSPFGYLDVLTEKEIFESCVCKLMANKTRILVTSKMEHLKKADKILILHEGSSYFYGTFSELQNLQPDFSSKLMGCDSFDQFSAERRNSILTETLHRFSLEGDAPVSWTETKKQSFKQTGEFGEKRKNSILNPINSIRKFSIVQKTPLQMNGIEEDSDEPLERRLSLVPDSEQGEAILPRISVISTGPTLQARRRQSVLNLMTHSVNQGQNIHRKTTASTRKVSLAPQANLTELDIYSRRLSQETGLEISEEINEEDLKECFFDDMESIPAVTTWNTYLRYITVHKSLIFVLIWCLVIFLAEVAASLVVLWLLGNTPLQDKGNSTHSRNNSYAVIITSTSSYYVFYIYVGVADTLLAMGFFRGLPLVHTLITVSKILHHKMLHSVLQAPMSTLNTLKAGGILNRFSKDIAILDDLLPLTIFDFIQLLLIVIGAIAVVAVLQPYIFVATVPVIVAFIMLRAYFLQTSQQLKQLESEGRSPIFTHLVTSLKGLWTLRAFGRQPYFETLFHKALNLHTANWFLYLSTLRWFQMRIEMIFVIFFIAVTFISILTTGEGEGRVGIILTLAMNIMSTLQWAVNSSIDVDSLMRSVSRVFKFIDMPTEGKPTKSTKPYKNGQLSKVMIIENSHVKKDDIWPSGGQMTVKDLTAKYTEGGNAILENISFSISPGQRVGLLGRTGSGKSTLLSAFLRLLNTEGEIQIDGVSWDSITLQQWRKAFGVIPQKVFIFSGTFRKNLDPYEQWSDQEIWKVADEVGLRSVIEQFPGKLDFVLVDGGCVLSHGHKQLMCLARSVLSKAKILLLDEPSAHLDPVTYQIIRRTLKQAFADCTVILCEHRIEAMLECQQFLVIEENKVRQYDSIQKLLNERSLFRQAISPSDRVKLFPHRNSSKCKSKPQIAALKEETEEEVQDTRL

pEC50	Structure (SMILES)
> 5.00	CC(C)(C)OC(=O)NCC(C)(C)c1ccc(NC(=O)c2c[nH]c3ccccc3c2=O)cc1 [compound 88, [2-methyl-2-[4-[(4-oxo-1H-quinolin-3-yl)carbonylamino]phenyl]-propyl]aminoformic acid tert-butyl ester]
4.60 to 5.00	O=C(Nc1ccccc1Oc1ccccc1)c1c[nH]c2ccccc2c1=O [compound 413, 4-oxo-N-(2-phenoxyphenyl)-1H-quinoline-3-carboxamide]
> 5.00	Nc1cccc(NC(=O)c2c[nH]c3ccccc3c2=O)c1 [compound 431, N-(3-aminophenyl)-4-oxo-1H-quinoline-3-carboxamide]
> 5.00	O=C(Nc1ccc(N2CCOCC2)cc1)c1c[nH]c2ccccc2c1=O [compound 457, N-(4-morpholinophenyl)-4-oxo-1H-quinoline-3-carboxamide]

— patent US20140329814A2, “Compositions for Treatment of Cystic Fibrosis and Other Chronic Diseases” (Vertex Pharmaceuticals Incorporated, priority 2010, published 2014)
